pIC50: −log10 of the molar value.
Tested on: 817829-284-R-J1-PDC complex spheroids, viability
Test: Anticancer human tumor 817829-284-R-J1-PDC patient-derived colon adenocarcinoma cell line growth inhibition [GQUAD]
Conditions: for pIC50: curve of first compound; for viability, T/C: stronger effect = lower value
How it was run: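 Viability of tumor cells grown as complex spheroids with endothelial and stromal cells, exposed to drug combinations. Top concentration at or near clinical Cmax (else 10 microM), diluted in half-log increments.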

[1] = second compound 0.0316 µM, first compound 0.0316 µM
[2] = second compound 0.0316 µM, first compound 0.1 µM
[3] = second compound 0.0316 µM, first compound 0.316 µM
[4] = second compound 0.0316 µM, first compound 1 µM
[5] = second compound 0.0316 µM, first compound 3.16 µM
[6] = second compound 0.0316 µM, first compound 10 µM
[7] = second compound 0.1 µM, first compound 0.0316 µM
[8] = second compound 0.1 µM, first compound 0.1 µM
[9] = second compound 0.1 µM, first compound 0.316 µM
[10] = second compound 0.1 µM, first compound 1 µM
[11] = second compound 0.1 µM, first compound 3.16 µM
[12] = second compound 0.1 µM, first compound 10 µM
[13] = second compound 0.316 µM, first compound 0.0316 µM
[14] = second compound 0.316 µM, first compound 0.1 µM
[15] = second compound 0.316 µM, first compound 0.316 µM
[16] = second compound 0.316 µM, first compound 1 µM
[17] = second compound 0.316 µM, first compound 3.16 µM
[18] = second compound 0.316 µM, first compound 10 µM
[19] = second compound 1 µM, first compound 0.0316 µM
[20] = second compound 1 µM, first compound 0.1 µM
[21] = second compound 1 µM, first compound 0.316 µM
[22] = second compound 1 µM, first compound 1 µM
[23] = second compound 1 µM, first compound 3.16 µM
[24] = second compound 1 µM, first compound 10 µM
[25] = second compound 3.16 µM, first compound 0.0316 µM
[26] = second compound 3.16 µM, first compound 0.1 µM
[27] = second compound 3.16 µM, first compound 0.316 µM
[28] = second compound 3.16 µM, first compound 1 µM
[29] = second compound 3.16 µM, first compound 3.16 µM
[30] = second compound 3.16 µM, first compound 10 µM
[31] = second compound 10 µM, first compound 0.0316 µM
[32] = second compound 10 µM, first compound 0.1 µM
[33] = second compound 10 µM, first compound 0.316 µM
[34] = second compound 10 µM, first compound 1 µM
[35] = second compound 10 µM, first compound 3.16 µM
[36] = second compound 10 µM, first compound 10 µM
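Also: spheroids exposed to agents for 7 days before readout.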
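For viability, T/C in this document: percent viability relative to DMSO vehicle control taken as 100%.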

COc1cc(C2c3cc4c(cc3C(OC3OC5COC(C)OC5C(O)C3O)C3COC(=O)C23)OCO4)cc(OC)c1O (stereo not drawn) + CN(C)c1ccc(Nc2c3ccc(NC(=O)CCN4CCCC4)cc3nc3cc(NC(=O)CCN4CCCC4)ccc23)cc1
pIC50 (second compound 0.0316 µM): 6.42
pIC50 (second compound 0.1 µM): 6.36
pIC50 (second compound 0.316 µM): 6.43
pIC50 (second compound 1 µM): 6.64
pIC50 (second compound 3.16 µM): 6.64
pIC50 (second compound 10 µM): 6.53
viability, T/C [1]: 103%
viability, T/C [2]: 85.7%
viability, T/C [3]: 35%
viability, T/C [4]: 42.8%
viability, T/C [5]: 32.1%
viability, T/C [6]: 10.2%
viability, T/C [7]: 97.5%
viability, T/C [8]: 88.6%
viability, T/C [9]: 34.5%
viability, T/C [10]: 44.9%
viability, T/C [11]: 33.9%
viability, T/C [12]: 11%
viability, T/C [13]: 92.7%
viability, T/C [14]: 81.6%
viability, T/C [15]: 37.7%
viability, T/C [16]: 40.4%
viability, T/C [17]: 33.3%
viability, T/C [18]: 11.8%
viability, T/C [19]: 101%
viability, T/C [20]: 92.1%
viability, T/C [21]: 33.1%
viability, T/C [22]: 40.7%
viability, T/C [23]: 32%
viability, T/C [24]: 9.94%
viability, T/C [25]: 95.4%
viability, T/C [26]: 87.9%
viability, T/C [27]: 34.3%
viability, T/C [28]: 37%
viability, T/C [29]: 30.7%
viability, T/C [30]: 10.4%
viability, T/C [31]: 86.9%
viability, T/C [32]: 68.2%
viability, T/C [33]: 37.1%
viability, T/C [34]: 41.5%
viability, T/C [35]: 27.3%
viability, T/C [36]: 10%

COc1cccc2c1C(=O)c1c(O)c3c(c(O)c1C2=O)CC(O)(C(=O)CO)CC3OC1CC(N)C(O)C(C)O1 (stereo not drawn) + Cc1cnc(CNC(=O)c2c(=O)c3ccc(N4CCCN(C)CC4)nc3n3c2sc2ccccc23)cn1
pIC50 (second compound 0.0316 µM): > 7.50
pIC50 (second compound 0.1 µM): > 7.50
pIC50 (second compound 0.316 µM): > 7.50
pIC50 (second compound 1 µM): > 7.50
pIC50 (second compound 3.16 µM): > 7.50
pIC50 (second compound 10 µM): > 7.50
viability, T/C [1]: 50.1%
viability, T/C [2]: 28.6%
viability, T/C [3]: 25.7%
viability, T/C [4]: 7.54%
viability, T/C [5]: 0.23%
viability, T/C [6]: 0.16%
viability, T/C [7]: 27.2%
viability, T/C [8]: 26.8%
viability, T/C [9]: 17.2%
viability, T/C [10]: 9.6%
viability, T/C [11]: 0.27%
viability, T/C [12]: 0.19%
viability, T/C [13]: 21.8%
viability, T/C [14]: 24.4%
viability, T/C [15]: 18.2%
viability, T/C [16]: 6.76%
viability, T/C [17]: 0.15%
viability, T/C [18]: 0.22%
viability, T/C [19]: 19.9%
viability, T/C [20]: 21.5%
viability, T/C [21]: 18.9%
viability, T/C [22]: 8.23%
viability, T/C [23]: 0.07%
viability, T/C [24]: 0.08%
viability, T/C [25]: 17.8%
viability, T/C [26]: 16.4%
viability, T/C [27]: 13.9%
viability, T/C [28]: 7.35%
viability, T/C [29]: 0.11%
viability, T/C [30]: 0.11%
viability, T/C [31]: 0.07%
viability, T/C [32]: 0.12%
viability, T/C [33]: 0.16%
viability, T/C [34]: 0.12%
viability, T/C [35]: 0.19%
viability, T/C [36]: 0.18%

COc1ncnc(C2CC2)c1-c1ncc2cnn(Cc3ccc(-c4nc(C(F)(F)F)cn4C(C)C)cc3)c2n1 + CN(C)c1ccc(Nc2c3ccc(NC(=O)CCN4CCCC4)cc3nc3cc(NC(=O)CCN4CCCC4)ccc23)cc1
pIC50 (second compound 0.0316 µM): < 5.00
pIC50 (second compound 0.1 µM): < 5.00
pIC50 (second compound 0.316 µM): < 5.00
pIC50 (second compound 1 µM): < 5.00
pIC50 (second compound 3.16 µM): < 5.00
pIC50 (second compound 10 µM): 5.35
viability, T/C [1]: 102%
viability, T/C [2]: 119%
viability, T/C [3]: 106%
viability, T/C [4]: 107%
viability, T/C [5]: 108%
viability, T/C [6]: 115%
viability, T/C [7]: 100%
viability, T/C [8]: 123%
viability, T/C [9]: 104%
viability, T/C [10]: 105%
viability, T/C [11]: 111%
viability, T/C [12]: 114%
viability, T/C [13]: 100%
viability, T/C [14]: 118%
viability, T/C [15]: 102%
viability, T/C [16]: 107%
viability, T/C [17]: 105%
viability, T/C [18]: 119%
viability, T/C [19]: 107%
viability, T/C [20]: 112%
viability, T/C [21]: 115%
viability, T/C [22]: 104%
viability, T/C [23]: 104%
viability, T/C [24]: 114%
viability, T/C [25]: 106%
viability, T/C [26]: 103%
viability, T/C [27]: 100%
viability, T/C [28]: 93.2%
viability, T/C [29]: 103%
viability, T/C [30]: 97.5%
viability, T/C [31]: 114%
viability, T/C [32]: 108%
viability, T/C [33]: 91.6%
viability, T/C [34]: 95.3%
viability, T/C [35]: 53.8%
viability, T/C [36]: 31.1%

CC[C@@]1(O)C(=O)OCc2c1cc1n(c2=O)Cc2cc3c(CN(C)C)c(O)ccc3nc2-1 + CN(C)c1ccc(Nc2c3ccc(NC(=O)CCN4CCCC4)cc3nc3cc(NC(=O)CCN4CCCC4)ccc23)cc1
pIC50 (second compound 0.0316 µM): 7.17
pIC50 (second compound 0.1 µM): 7.23
pIC50 (second compound 0.316 µM): 7.17
pIC50 (second compound 1 µM): 7.20
pIC50 (second compound 3.16 µM): 7.17
pIC50 (second compound 10 µM): 7.12
viability, T/C (second compound 0.0316 µM, first compound 0.000999 µM): 80.2%
viability, T/C (second compound 0.0316 µM, first compound 0.00316 µM): 104%
viability, T/C (second compound 0.0316 µM, first compound 0.00999 µM): 94.8%
viability, T/C [1]: 65.9%
viability, T/C (second compound 0.0316 µM, first compound 0.0999 µM): 45.4%
viability, T/C [3]: 35.5%
viability, T/C (second compound 0.1 µM, first compound 0.000999 µM): 97.1%
viability, T/C (second compound 0.1 µM, first compound 0.00316 µM): 122%
viability, T/C (second compound 0.1 µM, first compound 0.00999 µM): 108%
viability, T/C [7]: 59.8%
viability, T/C (second compound 0.1 µM, first compound 0.0999 µM): 44.5%
viability, T/C [9]: 38.5%
viability, T/C (second compound 0.316 µM, first compound 0.000999 µM): 89.7%
viability, T/C (second compound 0.316 µM, first compound 0.00316 µM): 123%
viability, T/C (second compound 0.316 µM, first compound 0.00999 µM): 107%
viability, T/C [13]: 66.7%
viability, T/C (second compound 0.316 µM, first compound 0.0999 µM): 46.4%
viability, T/C [15]: 35.6%
viability, T/C (second compound 1 µM, first compound 0.000999 µM): 111%
viability, T/C (second compound 1 µM, first compound 0.00316 µM): 108%
viability, T/C (second compound 1 µM, first compound 0.00999 µM): 105%
viability, T/C [19]: 62.9%
viability, T/C (second compound 1 µM, first compound 0.0999 µM): 45.9%
viability, T/C [21]: 34%
viability, T/C (second compound 3.16 µM, first compound 0.000999 µM): 114%
viability, T/C (second compound 3.16 µM, first compound 0.00316 µM): 99.9%
viability, T/C (second compound 3.16 µM, first compound 0.00999 µM): 101%
viability, T/C [25]: 67.7%
viability, T/C (second compound 3.16 µM, first compound 0.0999 µM): 41.5%
viability, T/C [27]: 32.4%
viability, T/C (second compound 10 µM, first compound 0.000999 µM): 102%
viability, T/C (second compound 10 µM, first compound 0.00316 µM): 101%
viability, T/C (second compound 10 µM, first compound 0.00999 µM): 84%
viability, T/C [31]: 65.8%
viability, T/C (second compound 10 µM, first compound 0.0999 µM): 45.6%
viability, T/C [33]: 30.3%
